Measurements: ChEMBL document CHEMBL4152218, “Novel hydrazide-hydrazone and amide substituted coumarin derivatives: Synthesis, cytotoxicity screening, microarray, radiolabeling and in vivo pharmacokinetic studies” (Eur J Med Chem, 2018)
Calls of active or inactive are those of the source. The rule behind the calls is not given here.

Key:
[1] = tested on: HepG2; experiment: Effect on SRXN1 gene expression in human HepG2 cells at IC50 after 48 hrs by microarray analysis; format: functional, cell-based
[2] = tested on: HepG2; experiment: Effect on WNT2B gene expression in human HepG2 cells at IC50 after 48 hrs by microarray analysis; format: functional, cell-based
[3] = tested on: HepG2; experiment: Effect on MYO 10 gene expression in human HepG2 cells at IC50 after 48 hrs by microarray analysis; format: functional, cell-based
[4] = tested on: HepG2; experiment: Effect on OKL38 gene expression in human HepG2 cells at IC50 after 48 hrs by microarray analysis; format: functional, cell-based
[5] = tested on: HepG2; experiment: Effect on NAV 2 gene expression in human HepG2 cells at IC50 after 48 hrs by microarray analysis; format: functional, cell-based
[6] = tested on: PANC-1; experiment: Effect on FEZ1 gene expression in human PANC1 cells at IC50 after 48 hrs by microarray analysis; format: functional, cell-based
[7] = tested on: PANC-1; experiment: Effect on RNF151 gene expression in human PANC1 cells at IC50 after 48 hrs by microarray analysis; format: functional, cell-based
[8] = tested on: PANC-1; experiment: Effect on NUCKS1 gene expression in human PANC1 cells at IC50 after 48 hrs by microarray analysis; format: functional, cell-based
[9] = tested on: HepG2; experiment: Effect on TOP3B gene expression in human HepG2 cells at IC50 after 48 hrs by microarray analysis; format: functional, cell-based
[10] = tested on: HepG2; experiment: Effect on DKK1 gene expression in human HepG2 cells at IC50 after 48 hrs by microarray analysis; format: functional, cell-based
[11] = tested on: HepG2; experiment: Effect on CPB2 gene expression in human HepG2 cells at IC50 after 48 hrs by microarray analysis; format: functional, cell-based
[12] = tested on: PANC-1; experiment: Effect on GLULP2 gene expression in human PANC1 cells at IC50 after 48 hrs by microarray analysis; format: functional, cell-based
[13] = tested on: PANC-1; experiment: Effect on ITGA2 gene expression in human PANC1 cells at IC50 after 48 hrs by microarray analysis; format: functional, cell-based
[14] = tested on: PANC-1; experiment: Effect on CTBP2 gene expression in human PANC1 cells at IC50 after 48 hrs by microarray analysis; format: functional, cell-based
[15] = tested on: HepG2; experiment: Effect on GST A2 gene expression in human HepG2 cells at IC50 after 48 hrs by microarray analysis; format: functional, cell-based
[16] = tested on: PANC-1; experiment: Antiproliferative activity against human PANC1 cells after 48 hrs by resazurin dye-based fluorescence assay; format: functional, cell-based; details: PANC-1, 48 h
[17] = tested on: HepG2; experiment: Effect on GRP gene expression in human HepG2 cells at IC50 after 48 hrs by microarray analysis; format: functional, cell-based
[18] = tested on: PANC-1; experiment: Effect on SDR16C5 gene expression in human PANC1 cells at IC50 after 48 hrs by microarray analysis; format: functional, cell-based
[19] = tested on: TERT-RPE1; experiment: Cytotoxicity against hTERT-RPE1 cells at 50 uM after 48 hrs by resazurin dye-based fluorescence assay relative to control; format: cell-based; details: human, tert-rpe1, 48 h
[20] = tested on: hTERT-BJ; experiment: Cytotoxicity against hTERT-BJ cells at 12.50 uM after 48 hrs by resazurin dye-based fluorescence assay relative to control; format: cell-based; details: human, 12.5 µM
[21] = tested on: TERT-RPE1; experiment: Cytotoxicity against hTERT-RPE1 cells at 25 uM after 48 hrs by resazurin dye-based fluorescence assay relative to control; format: cell-based; details: human, tert-rpe1, 48 h
[22] = tested on: HepG2; experiment: Effect on PRPF4B gene expression in human HepG2 cells at IC50 after 48 hrs by microarray analysis; format: functional, cell-based
[23] = tested on: HepG2; experiment: Effect on WDR26 gene expression in human HepG2 cells at IC50 after 48 hrs by microarray analysis; format: functional, cell-based
[24] = Selectivity index, ratio of IC50 for hTERT-RPE1 cells to IC50 for human HepG2 cells; format: toxicity; details: hTERT-RPE1 cells versus HepG2 cells, read-out: Ratio IC50
[25] = tested on: PANC-1; experiment: Effect on CYP3A4 gene expression in human PANC1 cells at IC50 after 48 hrs by microarray analysis; format: ADME, cell-based; details: panc-1, 48 h
[26] = tested on: HepG2; experiment: Effect on GDF15 gene expression in human HepG2 cells at IC50 by SYBR green-dye based qRT-PCR analysis relative to beta-actin; format: functional
[27] = tested on: PANC-1; experiment: Effect on MATK gene expression in human PANC1 cells at IC50 after 48 hrs by microarray analysis; format: functional, cell-based
[28] = tested on: PANC-1; experiment: Effect on HIST1H4C gene expression in human PANC1 cells at IC50 after 48 hrs by microarray analysis; format: functional, cell-based
[29] = Selectivity index, ratio of IC50 for hTERT-BJ cells to IC50 for human CCRF-CEM cells; format: toxicity; details: hTERT-BJ cells versus CCRF-CEM cells, read-out: Ratio IC50
[30] = tested on: HepG2; experiment: Effect on TOP2B gene expression in human HepG2 cells at IC50 after 48 hrs by microarray analysis; format: functional, cell-based
[31] = molecular target: Cytochrome P450 3A4 (Homo sapiens, UniProt P08684); experiment: Inhibition of human recombinant CYP3A4 using luciferin as substrate preincubated for 10 mins followed by substrate addition and measured after 50 mins in presence of NADPH by CYP450-Glo assay; format: ADME; details: recombinant enzyme
[32] = tested on: HepG2; experiment: Effect on TOP2A gene expression in human HepG2 cells at IC50 by SYBR green-dye based qRT-PCR analysis relative to beta-actin; format: functional
[33] = tested on: HepG2; experiment: Effect on GADD45G gene expression in human HepG2 cells at IC50 after 48 hrs by microarray analysis; format: functional, cell-based
[34] = tested on: HepG2; experiment: Effect on CASP2 gene expression in human HepG2 cells at IC50 after 48 hrs by microarray analysis; format: functional, cell-based
[35] = Selectivity index, ratio of IC50 for hTERT-BJ cells to IC50 for human HepG2 cells; format: toxicity; details: hTERT-BJ cells versus HepG2 cells, read-out: Ratio IC50
[36] = tested on: PANC-1; experiment: Induction of apoptosis in human PANC1 cells assessed as increase in caspase-3/7 activity after 24 hrs by Caspase-Glo 3/7 luminescence assay; format: functional, cell-based
[37] = tested on: HepG2; experiment: Effect on TNFRSF 19 gene expression in human HepG2 cells at IC50 after 48 hrs by microarray analysis; format: functional, cell-based
[38] = tested on: HepG2; experiment: Effect on GOLPH4 gene expression in human HepG2 cells at IC50 after 48 hrs by microarray analysis; format: functional, cell-based
[39] = tested on: PANC-1; experiment: Effect on RBM39 gene expression in human PANC1 cells at IC50 after 48 hrs by microarray analysis; format: functional, cell-based
[40] = tested on: PANC-1; experiment: Effect on ELP2P gene expression in human PANC1 cells at IC50 after 48 hrs by microarray analysis; format: functional, cell-based
[41] = tested on: PANC-1; experiment: Effect on CLDN14 gene expression in human PANC1 cells at IC50 after 48 hrs by microarray analysis; format: functional, cell-based
[42] = tested on: HepG2; experiment: Effect on AKR1B10 gene expression in human HepG2 cells at IC50 after 48 hrs by microarray analysis; format: functional, cell-based
[43] = tested on: HepG2; experiment: Effect on CXCR3 gene expression in human HepG2 cells at IC50 after 48 hrs by microarray analysis; format: functional, cell-based
[44] = tested on: PANC-1; experiment: Effect on ZNF43 gene expression in human PANC1 cells at IC50 after 48 hrs by microarray analysis; format: functional, cell-based
[45] = tested on: HepG2; experiment: Effect on LANCL 1 gene expression in human HepG2 cells at IC50 after 48 hrs by microarray analysis; format: functional, cell-based
[46] = tested on: HepG2; experiment: Effect on CYP1A1 gene expression in human HepG2 cells at IC50 after 48 hrs by microarray analysis; format: ADME, cell-based; details: hepg2, 48 h

Chain of Cytochrome P450 3A4 (P08684 whole entry): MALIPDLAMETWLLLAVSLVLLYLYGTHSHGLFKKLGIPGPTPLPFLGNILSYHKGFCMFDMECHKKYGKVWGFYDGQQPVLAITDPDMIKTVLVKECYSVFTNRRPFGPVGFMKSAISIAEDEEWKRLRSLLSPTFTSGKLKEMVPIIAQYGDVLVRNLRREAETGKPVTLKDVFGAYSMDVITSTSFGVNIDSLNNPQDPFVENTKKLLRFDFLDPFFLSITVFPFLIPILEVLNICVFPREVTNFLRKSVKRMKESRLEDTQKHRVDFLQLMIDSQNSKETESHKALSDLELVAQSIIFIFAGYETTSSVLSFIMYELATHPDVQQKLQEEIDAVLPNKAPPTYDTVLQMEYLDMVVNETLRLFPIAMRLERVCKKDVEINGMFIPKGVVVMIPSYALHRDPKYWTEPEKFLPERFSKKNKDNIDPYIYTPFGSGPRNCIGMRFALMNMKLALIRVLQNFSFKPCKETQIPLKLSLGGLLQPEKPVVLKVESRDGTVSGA

With `O=C(N/N=C/c1cc2ccccc2nc1Cl)c1cc2cc(Br)ccc2oc1=O` the Activity [1] was “Active”, the Activity [2] was “Active” and the Activity [3] was “Active”. For the same compound, the Activity [4] was “Active”, the Activity [5] was “Active” and the Activity [6] was “Active”. The Activity [7] was “Active”, the Activity [8] was “Active” and the Activity [9] was “Active”. The Activity [10] was “Active”, the Activity [11] was “Active” and the Activity [12] was “Active”. The Activity [13] was “Active”, the Activity [14] was “Active” and the Activity [15] was “Active”. The IC50 [16] was 5.45 µM, the Activity [17] was “Active” and the Activity [18] was “Active”. The Activity [19] was 20.18%, the Activity [20] was 3.63% and the Activity [21] was 19.41%. The Activity [22] was “Active”, the Activity [23] was “Active” and the selectivity ratio [24] was greater than 5.31. The Activity [25] was “Active”, the “fold change (FC)” value [26] was 3.51 and the Activity [27] was “Active”. The Activity [28] was “Active”, the selectivity ratio [29] was greater than 6.71 and the Activity [30] was “Active”. For the same compound, the “inhibition (INH)” value [31] was “Dose-dependent effect”, the “fold change (FC)” value [32] was -1.54 and the Activity [33] was “Active”. The Activity [34] was “Active”, the selectivity ratio [35] was greater than 5.31 and the Activity [36] was “Dose-dependent effect”. For the same compound, the Activity [37] was “Active”, the Activity [38] was “Active” and the Activity [39] was “Active”. The Activity [40] was “Active”, the Activity [41] was “Active” and the Activity [42] was “Active”. The Activity [43] was “Active”, the Activity [44] was “Active” and the Activity [45] was “Active”. The Activity [46] was “Active”.
